# Measurements published in ChEMBL document CHEMBL4382283, “Discovery of a GPR40 Superagonist: The Impact of Aryl Propionic Acid α-Fluorination” (ACS Med Chem Lett, 2019).
# Activity calls are given as the source filed them. The rule behind the calls is not given here.
# What was measured:
# [1] = molecular target: T1, Free fatty acid receptor 1 (Homo sapiens, UniProt O14842); assay: Agonist activity at GPR40 in human islets assessed as induction of glucose-stimulated insulin secretion at 10 uM after 1 hr by HTRF assay relative to (S)-3-Cyclopropyl-3-(3-(((1r,4S)-4-(2-fluoro-5-methoxyphenyl)cyclohexyl)methoxy)phenyl)propanoic acid
# T1 sequence (O14842 whole entry): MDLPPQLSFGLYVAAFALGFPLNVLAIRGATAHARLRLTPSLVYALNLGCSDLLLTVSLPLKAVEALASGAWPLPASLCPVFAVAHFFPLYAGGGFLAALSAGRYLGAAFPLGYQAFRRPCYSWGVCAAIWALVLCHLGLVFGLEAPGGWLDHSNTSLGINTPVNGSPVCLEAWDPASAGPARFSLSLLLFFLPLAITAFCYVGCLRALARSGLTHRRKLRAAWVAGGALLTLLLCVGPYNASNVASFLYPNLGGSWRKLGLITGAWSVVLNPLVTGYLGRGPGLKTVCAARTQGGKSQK
# [2] = molecular target: Free fatty acid receptor 1 (Rattus norvegicus, UniProt Q8K3T4); assay: Agonist activity at rat GPR40 expressed in HEK293 cells assessed as induction of intracellular calcium mobilization by Fluo-8 dye based FLIPR assay; assay type: functional, cell-based
# Chain of Free fatty acid receptor 1 (Rattus norvegicus, UniProt Q8K3T4) (Q8K3T4 whole entry): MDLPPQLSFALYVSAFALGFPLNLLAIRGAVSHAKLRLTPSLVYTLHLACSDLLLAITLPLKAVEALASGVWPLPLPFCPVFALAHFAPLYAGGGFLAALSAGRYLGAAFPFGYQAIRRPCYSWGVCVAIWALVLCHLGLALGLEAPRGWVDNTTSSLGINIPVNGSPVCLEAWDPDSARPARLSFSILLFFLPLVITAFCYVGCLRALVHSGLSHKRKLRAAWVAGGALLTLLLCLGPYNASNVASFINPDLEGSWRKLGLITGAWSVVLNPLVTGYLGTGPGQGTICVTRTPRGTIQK
# [3] = molecular target: T1, Free fatty acid receptor 1; assay: Partial agonist activity at human GPR40 expressed in CHOK1 cells assessed as induction of GalphaS-mediated cAMP accumulation after 30 mins HTRF assay; assay type: functional, cell-based
# [4] = molecular target: T1, Free fatty acid receptor 1; assay: Agonist activity at human GPR40 expressed in HEK293 cells assessed as induction of intracellular calcium mobilization by Fluo-8 dye based FLIPR assay; assay type: functional, cell-based
# [5] = molecular target: T1, Free fatty acid receptor 1; assay: Full agonist activity at human GPR40 expressed in CHOK1 cells assessed as induction of GalphaS-mediated cAMP accumulation after 30 mins HTRF assay; assay type: functional, cell-based
# [6] = molecular target: T1, Free fatty acid receptor 1; assay: Agonist activity at human GPR40 expressed in CHOK1 cells assessed as induction of Galphaq-mediated IP1 accumulation after 90 mins HTRF assay; assay type: functional, cell-based
# [7] = Half life in Sprague-Dawley rat at 10 mg/kg, po by LC-MS/MS analysis; assay type: ADME, organism-based; settings: in vivo
# [8] = Volume of distribution at steady state in Sprague-Dawley rat at 10 mg/kg, po or 2 mg/kg, iv by LC-MS/MS analysis; assay type: ADME, organism-based; settings: in vivo, read-out: Vdss
# [9] = Cmax in Sprague-Dawley rat at 10 mg/kg, po by LC-MS/MS analysis; assay type: ADME, organism-based; parameters: dose 10 mg/kg, route oral; settings: in vivo
# [10] = Drug metabolism in human hepatocytes at 10 uM after 2 hr by LC-MS analysis; assay type: ADME, cell-based, Hepatocyte
# [11] = Oral bioavailability in Sprague-Dawley rat at 10 mg/kg by LC-MS/MS analysis; assay type: ADME, organism-based; settings: in vivo
# [12] = Clearance in Sprague-Dawley rat at 10 mg/kg, po or 2 mg/kg, iv by LC-MS/MS analysis; assay type: ADME, organism-based; settings: in vivo
# [13] = Half life in Sprague-Dawley rat at 2 mg/kg, iv by LC-MS/MS analysis; assay type: ADME, organism-based; settings: in vivo
# [14] = Metabolic stability in human hepatocytes assessed as parent compound remaining at 10 uM after 2 hr by LC-MS analysis; assay type: ADME, cell-based, Hepatocyte
# [15] = Plasma concentration in diet-induced obese mouse at 10 mg/kg, po; assay type: ADME, organism-based; settings: in vivo
# [16] = Protein binding in human plasma at 10 uM after 6 hrs by equilibrium dialysis method; assay type: ADME, cell-free; settings: read-out: PPB
# [17] = test system: Rattus norvegicus; assay: Antiobesity activity in ZDF rat assessed as body weight loss at 10 mg/kg daily for 38 days relative to control; assay type: functional
# [18] = molecular target: T1, Free fatty acid receptor 1; assay: Positive allosteric modulation of human GPR40 expressed in CHOK1 cells assessed as increase in [3H]-(S)-3-Cyclopropyl-3-(3-(((1r,4S)-4-(2-fluoro-5-methoxyphenyl)cyclohexyl)methoxy)phenyl)propanoic acid binding after 60 mins by TopCount method; assay type: cell-based
# [19] = test system: Rattus norvegicus; assay: In vivo agonist activity at GPR40 in ZDF rat assessed as increase in plasma total GLP1 level at 10 mg/kg daily for 38 days relative to control; assay type: functional
# [20] = molecular target: T1, Free fatty acid receptor 1
# Description: Displacement of [3H]AM-1638 from human GPR40 expressed in CHOK1 cells assessed as dissociation half life after 40 mins by TopCount method
# [21] = molecular target: T1, Free fatty acid receptor 1; assay: Agonist activity at GPR40 in human islets assessed as induction of glucose-stimulated insulin secretion after 1 hr by HTRF assay
# [22] = test system: Mus musculus; assay: Antidiabetic activity in diet-induced obese mouse assessed as reduction in blood glucose excursion at 10 mg/kg, po administered 45 mins prior to glucose challenge and measured up to 120 mins by OGTT; assay type: functional, organism-based
# [23] = molecular target: T1, Free fatty acid receptor 1; remark: listed apart in the source
# Description: Displacement of [3H]AM-1638 from human GPR40 expressed in CHOK1 cells assessed as association half life after 60 mins by TopCount method
# [24] = test system: Rattus norvegicus; assay: Antiobesity activity in ZDF rat assessed as reduction in food intake at 10 mg/kg daily for 38 days relative to control; assay type: functional; parameters: scale not given: the % may be the effect or the level left
# [25] = test system: Mus musculus; assay: Antidiabetic activity in diet-induced obese mouse assessed as reduction in blood glucose excursion administered orally 45 mins prior to glucose challenge and measured up to 120 mins by OGTT; assay type: functional
# [26] = test system: Mus musculus; assay: Antiobesity activity in diet-induced obese C57BL/6J mouse assessed as body weight loss at 0.3 mg/kg, po once daily for 14 days measured on day 15 (reference value: 3.74 +/- 0.6%); assay type: functional
# [27] = Plasma concentration in diet-induced obese C57BL/6J mouse at 10 mg/kg, po once daily for 14 days measured 24 hrs post last dose; assay type: ADME, organism-based
# [28] = Plasma concentration in diet-induced obese mouse at 1 mg/kg, po; assay type: ADME, organism-based; settings: in vivo
# [29] = Plasma concentration in diet-induced obese mouse at 3 mg/kg, po; assay type: ADME, organism-based; settings: in vivo
# [30] = test system: Cytochrome P450; assay: Inhibition of CYP450 in human liver microsomes at 10 uM after 0.5 hrs by LC-MS/MS analysis; assay type: ADME
# [31] = test system: Mus musculus; assay: Antiobesity activity in diet-induced obese C57BL/6J mouse assessed as body weight loss at 10 mg/kg, po once daily for 14 days measured on day 15 (reference value: 3.74 +/- 0.6%); assay type: functional
# [32] = Plasma concentration in diet-induced obese mouse at 0.03 mg/kg, po; assay type: ADME, organism-based; settings: in vivo
# [33] = test system: Mus musculus; assay: Antiobesity activity in diet-induced obese C57BL/6J mouse assessed as body weight loss administered orally once daily for 14 days; assay type: functional, organism-based
# [34] = molecular target: Voltage-gated inwardly rectifying potassium channel KCNH2 (Homo sapiens, UniProt Q12809); assay: Inhibition of human ERG
# Chain of Voltage-gated inwardly rectifying potassium channel KCNH2 (Q12809 whole entry): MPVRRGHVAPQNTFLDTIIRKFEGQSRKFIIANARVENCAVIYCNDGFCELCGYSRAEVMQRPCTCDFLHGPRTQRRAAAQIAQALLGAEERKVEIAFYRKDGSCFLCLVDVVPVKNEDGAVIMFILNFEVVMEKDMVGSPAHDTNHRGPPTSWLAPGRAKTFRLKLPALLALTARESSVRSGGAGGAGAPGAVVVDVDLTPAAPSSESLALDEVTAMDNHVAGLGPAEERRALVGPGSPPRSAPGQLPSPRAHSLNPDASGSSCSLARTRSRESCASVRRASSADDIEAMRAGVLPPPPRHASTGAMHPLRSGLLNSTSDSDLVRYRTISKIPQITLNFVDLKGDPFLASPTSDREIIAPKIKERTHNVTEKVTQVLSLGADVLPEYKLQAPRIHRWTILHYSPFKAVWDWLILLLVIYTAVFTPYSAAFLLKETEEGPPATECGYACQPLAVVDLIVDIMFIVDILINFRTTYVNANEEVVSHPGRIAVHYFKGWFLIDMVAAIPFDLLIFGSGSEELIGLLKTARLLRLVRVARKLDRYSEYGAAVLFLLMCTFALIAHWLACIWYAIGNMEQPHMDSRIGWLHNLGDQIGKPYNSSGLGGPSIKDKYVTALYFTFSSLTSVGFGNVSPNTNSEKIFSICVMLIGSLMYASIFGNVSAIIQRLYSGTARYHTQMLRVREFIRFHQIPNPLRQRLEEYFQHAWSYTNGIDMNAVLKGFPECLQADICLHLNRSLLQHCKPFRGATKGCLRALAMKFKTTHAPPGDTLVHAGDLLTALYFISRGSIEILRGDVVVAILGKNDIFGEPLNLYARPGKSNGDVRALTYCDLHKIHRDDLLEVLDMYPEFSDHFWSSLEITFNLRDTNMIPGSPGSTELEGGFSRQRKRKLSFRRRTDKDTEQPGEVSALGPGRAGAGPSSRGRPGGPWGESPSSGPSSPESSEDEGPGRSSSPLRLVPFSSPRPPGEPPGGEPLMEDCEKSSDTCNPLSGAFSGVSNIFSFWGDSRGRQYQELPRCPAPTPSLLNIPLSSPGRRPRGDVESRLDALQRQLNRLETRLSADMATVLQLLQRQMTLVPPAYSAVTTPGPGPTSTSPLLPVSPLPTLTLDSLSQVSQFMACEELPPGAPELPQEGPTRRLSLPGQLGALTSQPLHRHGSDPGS
# [35] = test system: Cytochrome P450; assay: Induction of CYP450 in human liver microsomes at 10 uM after 0.5 hrs by LC-MS/MS analysis; assay type: ADME
# [36] = Plasma concentration in diet-induced obese mouse at 0.1 mg/kg, po; assay type: ADME, organism-based; settings: in vivo
# [37] = Plasma concentration in diet-induced obese C57BL/6J mouse at 3 mg/kg, po once daily for 14 days measured 24 hrs post last dose; assay type: ADME, organism-based
# [38] = test system: Mus musculus; assay: Antiobesity activity in diet-induced obese C57BL/6J mouse assessed as body weight loss at 1 mg/kg, po once daily for 14 days measured on day 15 (reference value: 3.74 +/- 0.6%); assay type: functional
# [39] = Genotoxicity in Salmonella typhi by Ames test; assay type: toxicity; settings: salmonella enterica subsp. enterica serovar […]
# [40] = Plasma concentration in diet-induced obese C57BL/6J mouse at 1 mg/kg, po once daily for 14 days measured 24 hrs post last dose; assay type: ADME, organism-based
# [41] = Plasma concentration in diet-induced obese C57BL/6J mouse at 30 mg/kg, po once daily for 14 days measured 24 hrs post last dose; assay type: ADME, organism-based
# [42] = Plasma concentration in diet-induced obese mouse at 0.3 mg/kg, po; assay type: ADME, organism-based; settings: in vivo
# [43] = test system: Mus musculus; assay: Antiobesity activity in diet-induced obese C57BL/6J mouse assessed as body weight loss at 3 mg/kg, po once daily for 14 days measured on day 15 (reference value: 3.74 +/- 0.6%); assay type: functional
# [44] = test system: Mus musculus; assay: Antiobesity activity in diet-induced obese C57BL/6J mouse assessed as reduction in cumulative food intake administered orally once daily for 14 days; assay type: functional, organism-based
# [45] = test system: Mus musculus; assay: Antiobesity activity in diet-induced obese C57BL/6J mouse assessed as body weight loss at 30 mg/kg, po once daily for 14 days measured on day 15 (reference value: 3.74 +/- 0.6%); assay type: functional
# [46] = Plasma concentration in diet-induced obese C57BL/6J mouse at 0.3 mg/kg, po once daily for 14 days measured 24 hrs post last dose; assay type: ADME, organism-based
smiles,measurement,setting,value
Cc1cc(OCCCS(C)(=O)=O)cc(C)c1-c1cccc(COc2ccc3c(c2)OC[C@H]3CC(=O)O)c1,Efficacy,[1],40%
same,EC50,[2],39 nM
COc1ccc(F)c([C@H]2CC[C@@H](COc3cccc([C@@H](CC(=O)O)C4CC4)c3)CC2)c1,Activity,[3],Active
COc1ccc(F)c([C@H]2CC[C@H](COc3cccc([C@H](C4CC4)C(F)(F)C(=O)O)c3)CC2)c1,EC50,[2],34 nM
same,EC50,[4],16 nM
COc1ccc(F)c([C@H]2CC[C@H](COc3cccc([C@H](C4CC4)[C@](C)(F)C(=O)O)c3)CC2)c1,Activity,[5],Active
same,EC50,[6],89 nM
COc1ccc(F)c([C@H]2CC[C@H](COc3cccc([C@H](C4CC4)[C@H](F)C(=O)O)c3)CC2)c1,EC50,[2],163 nM
same,Activity,[5],Active
same,EC50,[4],54 nM
COc1ccc(F)c(-c2ccc(COc3cccc([C@@H](CC(=O)O)C4CC4)c3)cc2C2=CCCC2(C)C)c1,Activity,[5],Active
same,Activity,[6],Active
COc1ccc(F)c([C@H]2CC[C@H](COc3cccc([C@H](C4CC4)[C@H](C)C(=O)O)c3)CC2)c1,half-life,[7],4.4 h
same,Vd,[8],0.9 L/kg
same,Cmax,[9],1360 ng/mL
same,EC50,[6],2 nM
same,Drug metabolism,[10],5%
same,bioavailability,[11],45.5%
same,clearance,[12],8.1 mL/min/kg
same,half-life,[13],4.8 h
same,Stability,[14],45%
COc1ccc(F)c([C@H]2CC[C@H](COc3cccc([C@H](C4CC4)[C@@H](C)C(=O)O)c3)CC2)c1,EC50,[2],4.9 nM
same,EC50,[4],2.2 nM
same,EC50,[6],22 nM
COc1ccc(F)c([C@H]2CC[C@H](COc3cccc([C@@H](CC(=O)O)C4CC4)c3)CC2)c1,EC50,[2],4.1 nM
same,Activity,[5],Active
same,concentration,[15],98700 nM
same,"fraction unbound at 6 h, 10 µM",[16],< 0.001
same,half-life,[7],9.1 h
same,Vd,[8],0.2 L/kg
same,Activity,[17],6%
same,Cmax,[9],18200 ng/mL
same,EC50,[4],0.94 nM
same,EC50,[6],199 nM
same,Activity,[18],Active
same,fold change (FC),[19],6.2
same,T1/2,[20],0.00233 h
same,EC50,[21],1370 nM
same,Activity,[22],Active
same,T1/2,[23],0.8 min
same,Drug metabolism,[10],4%
same,bioavailability,[11],91.4%
same,clearance,[12],0.4 mL/min/kg
same,half-life,[13],7.2 h
same,Activity,[24],10%
same,Stability,[14],56%
COc1ccc(F)c([C@H]2CC[C@H](COc3cccc([C@H](C4CC4)[C@@H](F)C(=O)O)c3)CC2)c1,EC50,[2],28 nM
same,Activity,[5],Active
same,half-life,[7],4.3 h
same,Vd,[8],0.9 L/kg
same,Cmax,[9],3700 ng/mL
same,EC50,[4],1.1 nM
same,EC50,[6],20 nM
same,Drug metabolism,[10],7%
same,bioavailability,[11],73.8%
same,clearance,[12],2.7 mL/min/kg
same,half-life,[13],4.7 h
same,Stability,[14],63%
COc1ccc(F)c([C@H]2CC[C@H](COc3cccc([C@H](C4CC4)[C@@](C)(F)C(=O)O)c3)CC2)c1,Activity,[25],Dose-dependent effect
same,minimal effective dose,"[25]; po, read-out: MED",3 mg/kg
same,Activity,[26],3.15%
same,concentration at 24 h,[27],7050 nM
same,EC50,[2],0.34 nM
same,Activity,[5],Active
same,concentration,[15],3830 nM
same,"fraction unbound at 6 h, 10 µM",[16],< 0.001
same,concentration,[28],220 nM
same,half-life,[7],7.9 h
same,Vd,[8],3.2 L/kg
same,concentration,[29],870 nM
same,inhibition (INH),[30],Not Active
same,Cmax,[9],495 ng/mL
same,Activity,[31],-10.07%
same,concentration,[32],7.4 nM
same,Activity,[33],Dose-dependent effect
same,inhibition (INH),[34],Not Active
same,Activity,[35],Not Active
same,concentration,[36],22 nM
same,EC50,[4],0.25 nM
same,concentration at 24 h,[37],1290 nM
same,EC50,[6],3.1 to 5.3 nM
same,Activity,[18],Active
same,T1/2,[20],0.333 h
same,EC50,[21],3.7 nM
same,Activity,[38],1.05%
same,T1/2,[23],3.3 min
same,Activity,[39],Non-Toxic
same,concentration at 24 h,[40],340 nM
same,Drug metabolism,[10],1%
same,concentration at 24 h,[41],391000 nM
same,bioavailability,[11],92.1%
same,concentration,[42],87 nM
same,clearance,[12],17 mL/min/kg
same,half-life,[13],4.3 h
same,Stability,[14],73%
same,Activity,[43],-2.56%
same,Activity,[44],Dose-dependent effect
same,Activity,[45],-6.84%
same,concentration at 24 h,[46],100 nM
COc1ccc(F)c([C@H]2CC[C@H](COc3cccc([C@H](C4CC4)C(C)(C)C(=O)O)c3)CC2)c1,EC50,[2],0.31 nM
same,EC50,[4],0.11 nM
same,EC50,[6],220 nM
